Values of other authors as cited in US9750250B2, “Conjugated polyelectrolytes and methods of using the same” (STC.UNM, priority 2015, dated 2017).

Conditions: deuterated methanol

Structure (SMILES): CC(=O)c1ccc2ccccc2c1 [2′-acetonaphthone]
- singlet oxygen quantum yield ΦΔ of the standard: 0.79±0.02
